# From patent publication US7626043B2, “Antiproliferative activity of the leiodermatolide class of macrolides” (Florida Atlantic University Board of Trustees, priority 2006, dated 2009)
# Legend:
# Type in all cases: cell-based
# [1] = test system: PANC-1 human pancreatic carcinoma cells; test: Cell cycle analysis (propidium iodide flow cytometry), PANC-1; conditions: PANC-1, 24 hr
# Procedure: PANC-1 human pancreatic carcinoma cells were used as cell cycle targets to compare the effects on perturbation of the cell cycle of leiodermatolide and the known mitotic spindle inhibitor Paclitaxel. Cell cycle analyses were performed as follows: PANC-1 […] were incubated in tissue culture media (TCM=Roswell Park Memorial Institute (RPMI) medium 1640 supplemented with 100 U/ml penicillin, […] 1-glutamine, 18 mM HEPES, 0.05 mg/ml gentamicin, 100 μg/ml sodium pyruvate, 2.5 mg/ml glucose and 10% fetal bovine serum) at 37° C. in 5% CO2 in air in the presence or absence of varying concentrations of leiodermatolide or Paclitaxel for 24 hours.
# (§1) Cells were harvested, fixed in ethanol and stained with 0.02 mg/ml of propidium iodide (P.I.) together with 0.1 mg/ml of RNAse A. This procedure permeabilizes cells and allows entry of P.I. to stain DNA (propidium iodide also stains double stranded RNA, so RNAse is included in the preparation to exclude this possibility). Stained preparations were analyzed on a BD Sciences Calibur Flow Cytometer with 488 nm excitation. Fluorescence measurements and resulting DNA histograms were collected from at least 3,000 P.I. stained cells at an emission wavelength of 690 nm. Raw histogram data was further analyzed using a cell cycle analysis program (Multicycle, Phoenix Flow Systems).
# [2] = test system: NCI-ADR-RES (Formerly MCF-7/ADR) human cancer; test: MTT antiproliferative/cytotoxicity assay, NCI-ADR-RES; conditions: 72-h exposure, read-out: NCIADR-RES IC50
# Procedure: (§2) Leiodermatolide was analyzed as to its effects on the proliferation of a panel of tumor cell lines including both cell lines. The cell lines tested include: A549 human lung adenocarcinoma, NCI-ADR-RES (Formerly MCF-7/ADR) human cancer, PANC-1 human pancreatic cancer, DLD-1 human colorectal carcinoma, and P388 murine leukemia cell lines. P388 cells were obtained from Dr. R. Camalier, National Cancer Institute Bethesda, Md., and A549, PANC-1, DLD-1 and NCI-ADR-RES cells were obtained from American Type Culture Collection, Rockville, Md. […]
# (§3) A volume of 75 μl of warm growth media containing 5 mg/ml MTT is added to each well, cultures returned to the incubator, and left undisturbed for 3 hours. To spectrophotometrically quantitate formation of reduced formazan, plates are centrifuged (900×g, 5 minutes), culture fluids removed by aspiration, and 200 μl of acidified isopropanol (2 ml concentrated HCl/liter isopropanol) added per well. The absorbance of the resulting solutions is measured at 570 nm with a plate reader (BMG labtech NOVOStar). […] The two standard drug controls (indicated above) are included in each assay to monitor the drug sensitivity of each of the cell lines and IC50 values are determined for each drug-cell combination.
# [3] = test system: A549 human lung adenocarcinoma cells; test: Cell cycle analysis (propidium iodide flow cytometry), A549; conditions: A549, 24 hr
# Procedure: A549 human lung adenocarcinoma cells were used as cell cycle targets to compare the effects on perturbation of the cell cycle of leiodermatolide to the known mitotic spindle inhibitor Paclitaxel. Cell cycle analyses were performed as follows: A549 human lung adenocarcinoma cells were incubated in tissue culture media (TCM=Roswell Park Memorial Institute (RPMI) medium 1640 supplemented with 100 U/ml penicillin, […] 1-glutamine, 18 mM HEPES, 0.05 mg/ml gentamicin and 10% fetal bovine serum) at 37° C. in 5% CO2 in air in the presence or absence of varying concentrations of leiodermatolide or Paclitaxel for 24 hours.
# as §1
# P388 murine leukemia = test: MTT antiproliferative/cytotoxicity assay, P388; conditions: Mus musculus, 48-hr exposure
# Procedure: as §2, §3
# [4] = test system: DLD-1 human colorectal carcinoma; test: MTT antiproliferative/cytotoxicity assay, DLD-1; conditions: 72-h exposure
# Procedure: as §2, §3
# [5] = test system: A549 human lung adenocarcinoma; test: MTT antiproliferative/cytotoxicity assay, A549; conditions: 72-h exposure
# Procedure: as §2, §3
# [6] = test system: PANC-1 human pancreatic cancer; test: MTT antiproliferative/cytotoxicity assay, PANC-1; conditions: 72-h exposure
# Procedure: as §2, §3
# [7] = 10 nM, listed as leiodermatolide
# [8] = 100 nM, listed as leiodermatolide
compound,measurement,setting,value
CCC1OC(=O)CC(O)(C/C=C/C=C(\C)C2OC(=O)CC/C=C(\C)C(C)C(O)C(C)C(OC(N)=O)/C=C\C=C/C2C)C1C (centres unmarked) [Leiodermatolide],G1 (percentage of cells),[1]; 1 nM,47.88%
same,G2/M (percentage of cells),[1]; 1 nM,28.93%
same,S (percentage of cells),[1]; 1 nM,23.18%
same,G1 (percentage of cells),[1]; 10 nM,12.04%
same,G2/M (percentage of cells),[1]; 10 nM,83.45%
same,S (percentage of cells),[1]; 10 nM,4.51%
same,G1 (percentage of cells),[1]; [7],12%
same,G2/M (percentage of cells),[1]; [7],83%
same,S (percentage of cells),[1]; [7],4%
same,G1 (percentage of cells),[1]; 100 nM,16.55%
same,G2/M (percentage of cells),[1]; 100 nM,77.45%
same,S (percentage of cells),[1]; 100 nM,6.00%
same,G1 (percentage of cells),[1]; [8],16%
same,G2/M (percentage of cells),[1]; [8],77%
same,S (percentage of cells),[1]; [8],6%
same,G1 (percentage of cells),[1]; 1000 nM,29.54%
same,G2/M (percentage of cells),[1]; 1000 nM,63.92%
same,S (percentage of cells),[1]; 1000 nM,6.53%
same,IC50,[2],233 nM
same,G1 (percentage of cells),[3]; 1 nM,55.75%
same,G2/M (percentage of cells),[3]; 1 nM,13.40%
same,S (percentage of cells),[3]; 1 nM,30.85%
same,G1 (percentage of cells),[3]; 10 nM,2.97%
same,G2/M (percentage of cells),[3]; 10 nM,97.03%
same,S (percentage of cells),[3]; 10 nM,0.00%
same,G1 (percentage of cells),[3]; [7],3%
same,G2/M (percentage of cells),[3]; [7],97%
same,S (percentage of cells),[3]; [7],0%
same,G1 (percentage of cells),[3]; 100 nM,1.70%
same,G2/M (percentage of cells),[3]; 100 nM,98.30%
same,S (percentage of cells),[3]; 100 nM,0.00%
same,G1 (percentage of cells),[3]; [8],2%
same,G2/M (percentage of cells),[3]; [8],98%
same,S (percentage of cells),[3]; [8],0%
same,G1 (percentage of cells),[3]; 1000 nM,4.99%
same,G2/M (percentage of cells),[3]; 1000 nM,95.01%
same,S (percentage of cells),[3]; 1000 nM,0.00%
same,IC50,P388 murine leukemia,3.3 nM
same,IC50,[4],8.3 nM
same,IC50,[5],3.3 nM
same,IC50,[6],5 nM
"CC(=O)O[C@H]1C(=O)[C@@]2(C)[C@H]([C@H](OC(=O)c3ccccc3)[C@]3(O)C[C@H](OC(=O)[C@H](O)[C@@H](NC(=O)c4ccccc4)c4ccccc4)C(C)=C1C3(C)C)[C@]1(OC(C)=O)CO[C@@H]1C[C@@H]2O [Paclitaxel, reference compound]",G1 (percentage of cells),[1]; 100 nM,10%
same,G2/M (percentage of cells),[1]; 100 nM,88%
same,S (percentage of cells),[1]; 100 nM,2%
same,G1 (percentage of cells),"[1]; 100 nM, listed as paclitaxel",9.76%
same,G2/M (percentage of cells),"[1]; 100 nM, listed as paclitaxel",88.36%
same,S (percentage of cells),"[1]; 100 nM, listed as paclitaxel",1.88%
same,G1 (percentage of cells),[3]; 100 nM,2%
same,G2/M (percentage of cells),[3]; 100 nM,98%
same,S (percentage of cells),[3]; 100 nM,0%
same,G1 (percentage of cells),"[3]; 100 nM, listed as taxol",2.18%
same,G2/M (percentage of cells),"[3]; 100 nM, listed as taxol",97.82%
same,S (percentage of cells),"[3]; 100 nM, listed as taxol",0.00%
